Consider 39 compounds from patent US12655150B2 (Cedilla Therapeutics, Inc., priority 2021, dated 2026).

Where a name gives a salt, the structure may show the parent alone. A value given as a limit tells only on which side of the number the result lay.

The first assay concerns NCI-H226. The assay is described as follows: 72H TEAD Proliferation Assay (Cell Titer Glo 2.0). Type of assay: cell-based. The note with it: CTG 2.0, cell line not given (NCI-H226 responsive, NCI-H28 non-responsive). In a few lines: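 Growth read-out is ATP luminescence (CellTiter-Glo 2.0) after 72 h compound exposure, corrected for no-CTG background and day-0 values, with GI50 from nonlinear regression. Sensitive line NCI-H226 (NF2-deficient); non-responsive NCI-H28 (NF2 wild type) distinguishes TEAD-driven from nonspecific growth inhibition.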
Background: In ATP-based viability assays light output follows the ATP content of the culture.
In the case of `COc1cc(-c2ccc(C(F)(F)F)cc2)nc2cc(C(=O)N3CCC3CO)ccc12` (single isomer, unassigned) [I-373, (2-(hydroxymethyl)azetidin-1-yl) (4-methoxy-2-(4-(trifluoromethyl)phenyl)quinolin-7-yl)methanone], the GI50 (as a rule, the concentration that inhibits growth by half) was ≤ 1000 nM.

Staying with this assay, now noted: Homo sapiens, NCI-H226, 72 h, CTG 2.0, cell line not given (NCI-H226 responsive, NCI-H28 non-responsive).
Consider `Cc1cc2c(-c3ccc(C(F)(F)F)cc3)nc3cc(C(=O)O)ccc3n2c1` [I-404, 2-Methyl-4-(4-(trifluoromethyl)phenyl)pyrrolo[1,2-a]quinoxaline-7-carboxylic acid], for which the GI50 was ≤ 1000 nM. On the same count and under the same terms, next, `C=CC(=O)NCc1cn2ccnc2c(Oc2ccc(C(F)(F)F)cc2)n1` [I-174, N-((8-(4-(trifluoromethyl)phenoxy)imidazo[1,2-a]pyrazin-6-yl)methyl)acrylamide]: ≤ 1000 nM; `O=C(O)c1ccc2c(c1)nc(N1CCC(C(F)(F)F)CC1)c1cccn12` [I-38, 4-(4-(Trifluoromethyl)piperidin-1-yl)pyrrolo[1,2-a]quinoxaline-7-carboxylic acid]: > 10000 nM. `Cc1cc(-c2ccc(C(F)(F)F)cc2)nc2cc(-c3nnn[nH]3)ccc12` [I-254, 4-Methyl-7-(1H-tetrazol-5-yl)-2-(4-(trifluoromethyl)phenyl)quinoline]: the GI50 was in the range of 5000 to 10000 nM. The same measure, in the same setting: next, `CC(C)(C)c1ccc(-c2nc3cc(C(=O)NCCO)ccc3n3cccc23)cc1` [I-185, 4-(4-(tert-butyl)phenyl)-N-(2-hydroxyethyl)pyrrolo[1,2-a]quinoxaline-7-carboxamide]: 1000 to 5000 nM; `CC(C)(C)c1ccc(-c2cncc3cc(C(=O)O)ccc23)cc1` [I-95, 4-(4-(tert-Butyl)phenyl)isoquinoline-7-carboxylic acid]: > 10000 nM; `COc1cc(-c2ccc(C(F)(F)F)cc2)nc2cc(C(=O)N[C@@H](C)c3ccccc3)ccc12` [I-351, (S)-4-methoxy-N-(1-phenylethyl)-2-(4-(trifluoromethyl)phenyl)quinoline-7-carboxamide]: ≤ 1000 nM. On the same count and under the same terms, next, `O=C(O)c1ccc2c(c1)nc(N1CC3C(C1)C3C(F)(F)F)c1cccn12` (stereo not drawn) [I-128, 4-(6-(Trifluoromethyl)-3-azabicyclo[3.1.0]hexan-3-yl)pyrrolo[1,2-a]quinoxaline-7-carboxylic acid hydrochloride]: 1000 to 5000 nM; `C=CC(=O)NCc1cc2ccc(F)cc2c(-c2ccc(C(F)(F)F)cc2)n1` [I-295, N-((7-fluoro-1-(4-(trifluoromethyl)phenyl)isoquinolin-3-yl)methyl)acrylamide]: ≤ 1000 nM; `Cc1cc(-c2ccc(C(C)(C)C)cc2)nc2cc(C(=O)O)ccc12` [I-88, 2-(4-(tert-Butyl)phenyl)-4-methylquinoline-7-carboxylic acid]: 1000 to 5000 nM. On the same count and under the same terms, for `CC(C)(C)N1CCN(c2nc3cc(C(=O)O)ccc3n3cccc23)CC1` [I-20, 4-(4-(tert-Butyl)piperazin-1-yl)pyrrolo[1,2-a]quinoxaline-7-carboxylic acid] the value was > 10000 nM; for `Cc1cc(-c2ccc(C(F)(F)F)cc2)nc2cc(C(=O)N[C@H](C)CO)ccc12` [I-261, (R)—N-(1-hydroxypropan-2-yl)-4-methyl-2-(4-(trifluoromethyl)phenyl)quinoline-7-carboxamide], ≤ 1000 nM; for `CC(C)(C)c1ccc(-c2nc3cc(S(N)(=O)=O)ccc3n3cccc23)cc1` [I-311, 4-(4-(tert-butyl)phenyl)pyrrolo[1,2-a]quinoxaline-7-sulfonamide], 1000 to 5000 nM. For `CC(c1ccc(-c2nc3cc(C(=O)O)ccc3n3cccc23)cc1)C(F)(F)F` (stereo not drawn) [I-195, 4-(4-(1,1,1-trifluoropropan-2-yl)phenyl)pyrrolo[1,2-a]quinoxaline-7-carboxylic acid], the GI50 fell in the range of 1000 to 5000 nM. In turn, `Cn1cnc(-c2cc(-c3ccc(C(F)(F)F)cc3)nc3cc(C(=O)O)ccc23)c1` [I-388, 4-(1-methyl-1H-imidazol-4-yl)-2-(4-(trifluoromethyl)phenyl)quinoline-7-carboxylic acid] returned a GI50 of 1000 to 5000 nM. On the same count and under the same terms, next, `C=CC(=O)Nc1ccc2c(C)cc(-c3ccc(C(F)(F)F)cc3F)nc2c1` [I-90, N-(2-(2-fluoro-4-(trifluoromethyl)phenyl)-4-methylquinolin-7-yl)acrylamide]: ≤ 1000 nM; `COc1cc(-c2ccc(C(F)(F)F)cc2)nc2cc(C(=O)N[C@@H](C)c3ccccn3)ccc12` [I-327, (S)-4-methoxy-N-(1-(pyridin-2-yl)ethyl)-2-(4-(trifluoromethyl)phenyl)quinoline-7-carboxamide]: ≤ 1000 nM; `O=C(O)c1ccc2c(c1)nc(-c1c(Cl)cc(C(F)(F)F)cc1Cl)c1cccn12` [I-201, 4-(2,6-Dichloro-4-(trifluoromethyl)phenyl)pyrrolo[1,2-a]quinoxaline-7-carboxylic acid]: 5000 to 10000 nM. Same read-out and setting: for `Cc1cc(-c2ccc(OC(F)(F)F)cc2)nc2cc(C(=O)N[C@H](C)CO)ccc12` [I-255, (R)—N-(1-hydroxypropan-2-yl)-4-methyl-2-(4-(trifluoromethoxy)phenyl)quinoline-7-carboxamide] the value was 1000 to 5000 nM. The same measure, in the same setting: next, `Cc1cc(-c2ccc(C(F)(F)F)cc2)nc2cc(C(=O)N[C@@H](C)c3cccc(O)c3)ccc12` [I-269, (S)—N-(1-(3-hydroxyphenyl)ethyl)-4-methyl-2-(4-(trifluoromethyl)phenyl)quinoline-7-carboxamide]: ≤ 1000 nM. In turn, `CC[C@H](CO)NC(=O)c1ccc2c(OC)cc(-c3ccc(C(F)(F)F)cc3C(F)(F)F)nc2c1` [I-338, (R)-2-(2,4-bis(trifluoromethyl)phenyl)-N-(1-hydroxybutan-2-yl)-4-methoxyquinoline-7-carboxamide] gave a GI50 of 1000 to 5000 nM. On to `CC1(C)C2CN(c3nc4cc(C(=O)O)ccc4n4cccc34)CC21` (stereo not drawn) [I-31, 4-(6,6-Dimethyl-3-azabicyclo[3.1.0]hexan-3-yl)pyrrolo[1,2-a]quinoxaline-7-carboxylic acid], for which the GI50 is > 10000 nM. Still for that read-out and setting: next, `COc1cc2c(-c3ccc(C(C)(C)C)cc3)nc3cc(C(=O)O)ccc3n2c1` [I-180, 4-(4-(tert-butyl)phenyl)-2-methoxypyrrolo[1,2-a]quinoxaline-7-carboxylic acid]: ≤ 1000 nM; `Cc1cn2cc(CNC(=O)/C=C/CF)nc(-c3ccc(C(F)(F)F)cc3)c2n1` [I-248, (E)-4-fluoro-N-((2-methyl-8-(4-(trifluoromethyl)phenyl)imidazo[1,2-a]pyrazin-6-yl)methyl)but-2-enamide]: ≤ 1000 nM; `COc1cccc([C@H](C)NC(=O)c2ccc3c(OC)cc(-c4ccc(C(F)(F)F)cc4)nc3c2)c1` [I-348, (S)-4-methoxy-N-(1-(3-methoxyphenyl)ethyl)-2-(4-(trifluoromethyl)phenyl)quinoline-7-carboxamide]: ≤ 1000 nM. For the compound `Cc1cc(C(F)(F)F)ccc1-c1nc2cc(C(=O)O)ccc2n2cccc12` [I-52, 4-(2-Methyl-4-(trifluoromethyl)phenyl)pyrrolo[1,2-a]quinoxaline-7-carboxylic acid], the GI50 fell in the range of 1000 to 5000 nM.

As for `C=CC(=O)NCc1cn2ccnc2c(-c2ccc(C(F)(F)F)cc2)n1` [I-109, N-((8-(4-(trifluoromethyl)phenyl)imidazo[1,2-a]pyrazin-6-yl)methyl)acrylamide], the GI50 was ≤ 1000 nM. On the same count and under the same terms, next, `COc1cc(-c2ccc(C(F)(F)F)cc2)nc2cc(C(=O)N[C@@H](CO)C(C)C)ccc12` [I-343, (R)—N-(1-hydroxy-3-methylbutan-2-yl)-4-methoxy-2-(4-(trifluoromethyl)phenyl)quinoline-7-carboxamide]: ≤ 1000 nM.

In the case of `C=CC(=O)NCC(=C)c1cn2ccnc2c(-c2ccc(C(F)(F)F)cc2)n1` [I-250, N-(2-(8-(4-(trifluoromethyl)phenyl)imidazo[1,2-a]pyrazin-6-yl)allyl)acrylamide], the concentration for 50% growth inhibition (GI50) is ≤ 1000 nM. Same read-out and setting: for `CN(C)c1cc(-c2ccc(C(F)(F)F)cc2)nc2cc(C(=O)O)ccc12` [I-392, 4-(dimethylamino)-2-(4-(trifluoromethyl)phenyl)quinoline-7-carboxylic acid] the value was 1000 to 5000 nM; for `C=CC(=O)NCc1cn2c(F)ccc2c(-c2ccc(C(C)(C)C)cc2)n1` [I-409, N-((1-(4-(tert-butyl)phenyl)-6-fluoropyrrolo[1,2-a]pyrazin-3-yl)methyl)acrylamide], ≤ 1000 nM. The same measure, in the same setting: next, `Cc1cc(-c2ccc(C(F)(F)F)cc2)nc2cc(C(=O)N[C@@H](C)COC(F)(F)F)ccc12` [I-264, (S)-4-methyl-N-(1-(trifluoromethoxy)propan-2-yl)-2-(4-(trifluoromethyl)phenyl)quinoline-7-carboxamide]: 1000 to 5000 nM. On the same count and under the same terms, for `C=CC(=O)Nc1ncc2c(ccn2-c2ccc(C(C)(C)C)cc2)n1` [I-100, N-(5-(4-(tert-butyl)phenyl)-5H-pyrrolo[3,2-d]pyrimidin-2-yl)acrylamide] the value was 5000 to 10000 nM; for `CC(C)(C)c1ccc(-c2nc3cc(-c4nnc(N)o4)ccc3n3cccc23)cc1` [I-189, 5-(4-(4-(tert-butyl)phenyl)pyrrolo[1,2-a]quinoxalin-7-yl)-1,3,4-oxadiazol-2-amine], 5000 to 10000 nM. `CC(C)(C)c1ccc(-c2nc(O)cn3ccnc23)cc1` [I-148, 8-(4-(tert-Butyl)phenyl)imidazo[1,2-a]pyrazin-6-ol]: the concentration for 50% growth inhibition (GI50) is > 10000 nM. On the same count and under the same terms, next, `C=CC(=O)Nc1ccc2cnc(-c3ccc(C(C)(C)C)cc3)nc2c1` [I-80, N-(2-(4-(tert-butyl)phenyl)quinazolin-7-yl)acrylamide]: ≤ 1000 nM; `CC(C)(C)c1ccc(-c2nc(C(=O)O)cn3cnnc23)cc1` [I-93, 8-(4-(tert-Butyl)phenyl)-[1,2,4]triazolo[4,3-a]pyrazine-6-carboxylic acid]: > 10000 nM. Same read-out and setting: next, `CC(C)(C)c1ccc(-c2nc(/C=C/C(=O)O)cn3ccnc23)cc1` [I-152, (E)-3-(8-(4-(tert-butyl)phenyl)imidazo[1,2-a]pyrazin-6-yl)acrylic acid]: 1000 to 5000 nM.
